Assay results published in PMC4157337 (Peptides, 2013).
Blank lines part the entries; values can stand above or below the compound they belong to.

Key:
[1] = tested on: Ang-(1-7) peptidase (CSF); experiment: Peptidase kinetics; type: biochemical; conditions: sheep CSF, control and BMX; product [125I]-Ang-(1-4)
[2] = tested on: Ang-(1-7) peptidase (CSF); experiment: pH profile of [125I]-Ang-; type: biochemical, sheep; conditions: pH 5 to 8.5; N = 3
[3] = tested on: Ang-(1-7) peptidase (CSF); experiment: Competition of peptides for conversion of [125I]-Ang-; conditions: pooled CSF, inhibitor cocktail, 120 min, 37°C; Figure 4
[4] = tested on: Ang-(1-7) peptidase (CSF); conditions: sheep CSF, earlier study; cited from earlier work
[5] = cited from earlier work
[6] = tested on: Ang-(1-7) peptidase (CSF); experiment: Inhibitor profile: [125I]-Ang-; type: biochemical, sheep; conditions: text to Figure 1D-F; pooled CSF
neurolysin = conditions: cited from earlier work
[7] = biological target: TOP (thimet oligopeptidase); conditions: cited from earlier work
neprilysin = conditions: no reference given; quoted as known selective inhibitor; cited from earlier work

Compound: O=C(O)c1cc[c]([Hg][Cl])cc1 [PCMB, p-chloromercuribenzoic acid]
conversion of Ang-(1-7) to Ang-(1-4) in CSF, in words [4]: abolished

Compound: C[C@H]1C[C@H]2[C@@H]3CCC4=CC(=O)C=C[C@]4(C)[C@@]3(F)[C@@H](O)C[C@]2(C)[C@@]1(O)C(=O)CO [betamethasone]
ACE2 activity in renal cortex, isolated tubules and urine, in words ([5]; BMX sheep): lower | ACE2 activity in the circulation, in words ([5]; adult BMX offspring): decreased | soluble ACE activity in the circulation, in words ([5]; adult BMX offspring): increased | MAP, in words ([5]; antenatal exposure, by 6 months of age): elevated MAP | baroreflex sensitivity (BRS), in words ([5]; antenatal exposure, by 6 weeks): decreased BRS

Compound: Pro-Ile
attenuation of metabolism of Ang-(1-7) to Ang-(1-4), in words [6]: failed to attenuate | Ki (neurolysin): 90 µM | sensitivity of neurolysin forms to inhibition, in words (neurolysin; cytosolic and mitochondrial forms): sensitive to Pro-Ile inhibition

Continued, in another order:

site of hydrolysis [1]: Tyr^4-Ile^5 bond | conversion in BMX versus control CSF, in words [2]: higher activity than the control
Compound: [^125I]-Ang-(1-7): iodinated Ang-(1-7), substrate; chloramine T method

extent of inhibition of enzyme activity over the concentration range [3]: 15% | extent of inhibition of enzyme activity, in words [3]: poor competitor
Compound: neurotensin

attenuation of metabolism of Ang-(1-7) to Ang-(1-4), in words [6]: failed to attenuate
Compound: 1-carboxy-3-phenyl-propyl (Ala-Ala-Phe-4-Abz-OH [CFP]
Ki [7]: 0.18 µM | Ki (neurolysin): 4 µM

attenuation of metabolism of Ang-(1-7) to Ang-(1-4), in words [6]: failed to attenuate
Compound: O=C(O)C(O)CNC(=O)[C@H](Cc1ccccc1)NC(CCc1ccccc1)C(=O)O (stereo partly drawn) [SCH39370]
Ki (neprilysin): 0.011 µM
